The assay concerns the target T1, Rat IKK-2 (Rattus norvegicus, UniProt Q9QY78).
T1 sequence (Q9QY78 1-757): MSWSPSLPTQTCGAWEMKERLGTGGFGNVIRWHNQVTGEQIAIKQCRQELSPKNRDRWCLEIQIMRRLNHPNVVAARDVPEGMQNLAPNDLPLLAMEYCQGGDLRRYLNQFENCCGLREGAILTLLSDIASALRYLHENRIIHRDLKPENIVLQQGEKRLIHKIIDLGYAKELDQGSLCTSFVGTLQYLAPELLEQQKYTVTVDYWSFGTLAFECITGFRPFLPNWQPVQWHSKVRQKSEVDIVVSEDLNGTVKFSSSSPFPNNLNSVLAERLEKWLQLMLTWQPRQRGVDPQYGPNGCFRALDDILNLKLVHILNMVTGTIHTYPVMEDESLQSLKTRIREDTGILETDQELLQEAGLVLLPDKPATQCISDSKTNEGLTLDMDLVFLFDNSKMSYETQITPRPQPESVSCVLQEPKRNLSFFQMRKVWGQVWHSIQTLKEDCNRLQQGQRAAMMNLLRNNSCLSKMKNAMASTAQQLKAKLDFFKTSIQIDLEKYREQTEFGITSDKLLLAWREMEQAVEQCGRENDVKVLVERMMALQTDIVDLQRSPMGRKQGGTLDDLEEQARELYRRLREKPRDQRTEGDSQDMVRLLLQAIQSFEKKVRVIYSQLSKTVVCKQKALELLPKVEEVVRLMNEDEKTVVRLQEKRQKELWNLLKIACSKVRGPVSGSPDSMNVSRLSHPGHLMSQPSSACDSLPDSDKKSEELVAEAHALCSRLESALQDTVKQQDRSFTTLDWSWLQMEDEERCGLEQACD
Nature of the assay: Rat IKK-2 enzyme assay. The format is biochemical. To be noted: read-out: IC50 (μM) rIKK-2. The protocol:
Kinase activity was measured using a biotinylated […] peptide (Gly-Leu-Lys-Lys-Glu-Arg-Leu-Leu-Asp-Asp-Arg-His-Asp-Ser32-Gly-Leu-Asp-Ser36-Met-Lys-Asp-Glu-Glu) (American Peptide Co.). 20 μL of the standard reaction mixture contained 5 μM biotinylated IκBα peptide, 0.1 μCi/reaction [γ-^33P] ATP (Amersham) (about 1×10^5 cpm), 1 μM ATP (Sigma), 1 mM DTT (Sigma), 2 mM MgCl2 (Sigma), 2 mM MnCl2 (Sigma), 10 mM NaF (Sigma), 25 mM Hepes (Sigma) buffer, pH. 7.6 and 20 μL enzyme solution (50 nM/rxn or 200 ng/rxn) and 10 μL inhibitor in a final volume of 50 μL. After incubation at 25° C. for 60 min, 150 μL resin was added to each well to stop the reaction. Resin was mixed and allowed to settle for 1 h and 50 μL of supernatant was removed to a Micolite 2 flat bottom plate (Dynex). 150 μL of scintillation fluid (Microscint 40) (Packard) was added to each well. Incorporation of [γ-^33P] ATP was measured using a Top-Count NXT (Packard).

On to `N#Cc1ccc(-c2ccc(-n3cc(NC(N)=O)c(C(N)=O)n3)cc2)cc1` [Example 100, 4-[(aminocarbonyl)amino]-1-(4′-cyano-1,1′-biphenyl-4-yl)-1H-pyrazole-3-carboxamide], for which the IC50 came to 0.171 µM.

Consider `N#CCCc1cccc(-c2ccc(-n3cc(NC(N)=O)c(C(N)=O)n3)cc2)c1` [Example 186, 4-[(aminocarbonyl)amino]-1-[3′-(2-cyanoethyl)-1,1′-biphenyl-4-yl]-1H-pyrazole-3-carboxamide], for which the half-inhibitory concentration (IC50) worked out at 0.475 µM. To `NC(=O)Nc1cn(-c2ccc(-c3ccc(C(=O)OCc4cccc(F)c4)c(F)c3)cc2)nc1C(N)=O` [Example 163, 3-fluorobenzyl 4′-{3-(aminocarbonyl)-4-[(aminocarbonyl)amino]-1H-pyrazol-1-yl}-3-fluoro-1,1′-biphenyl-4-carboxylate] belongs 17.4 µM; to `N#CCOc1cc(F)ccc1-c1ccc(-n2cc(NC(N)=O)c(C(N)=O)n2)cc1` [Example 173, 4-[(aminocarbonyl)amino]-1-[2′-(cyanomethoxy)-4′-fluoro-1,1′-biphenyl-4-yl]-1H-pyrazole-3-carboxamide], 0.105 µM. Next, `NC(=O)Nc1cn(-c2ccc(-c3ccccc3)cc2)nc1C(N)=O` [Example 101, 4-[(aminocarbonyl)amino]-1-(1,1′-biphenyl-4-yl)-1H-pyrazole-3-carboxamide]: 1.89 µM; `CCOc1cc(-n2cc(NC(N)=O)c(C(N)=O)n2)ccc1Br` [Example 3, 4-[(aminocarbonyl)amino]-1-(4-bromo-3-ethoxyphenyl)-1H-pyrazole-3-carboxamide]: 0.787 µM; `NC(=O)Nc1cn(-c2ccc(Sc3ccccn3)cc2)nc1C(N)=O` [Example 205, 1-(3-carbamoyl-1-(4-(pyridin-2-ylthio)phenyl)-1H-pyrazol-4-yl)urea]: 0.258 µM. Next, `NC(=O)Nc1cn(-c2ccc(I)cc2)nc1C(N)=O` [Example 215, 4-[(aminocarbonyl)amino]-1-(4-iodophenyl)-1H-pyrazole-3-carboxamide]: 0.091 µM; `NC(=O)Nc1cn(-c2cccc(-c3cc(F)ccc3O)c2)nc1C(N)=O` [Example 93, 4-[(aminocarbonyl)amino]-1-(5′-fluoro-2′-hydroxy-1,1′-biphenyl-3-yl)-1H-pyrazole-3-carboxamide]: 1.82 µM; `NC(=O)Nc1cn(-c2ccc(S(=O)(=O)c3ccc(F)cc3)cc2)nc1C(N)=O` [Example 204, 1-(1-(4-(4-fluorophenylsulfonyl)phenyl)-3-carbamoyl-1H-pyrazol-4-yl)urea]: 0.023 µM. As to `CN(C)CCN(C)C(=O)c1ccc(-c2ccc(-n3cc(NC(N)=O)c(C(N)=O)n3)cc2)cc1F` [Example 160, 4-[(aminocarbonyl)amino]-1-(4′-{[[2-(dimethylamino)ethyl](methyl)amino]carbonyl}-3′-fluoro-1,1′-biphenyl-4-yl)-1H-pyrazole-3-carboxamide], the concentration for half-maximal inhibition (IC50) turned out to be 7.19 µM. To `CC(C)(C)OC(=O)COc1cccc(-c2ccc(-n3cc(NC(N)=O)c(C(N)=O)n3)cc2)c1` [Example 174, tert-butyl [(4′-{3-(aminocarbonyl)-4-[(aminocarbonyl)amino]-1H-pyrazol-1-yl}-1,1′-biphenyl-3-yl)oxy]acetate] belongs 2.49 µM; to `NC(=O)Nc1cn(-c2ccc(-c3ccc(C(=O)O)c(F)c3)cc2)nc1C(N)=O` [Example 97, 4′-{3-(aminocarbonyl)-4-[(aminocarbonyl)amino]-1H-pyrazol-1-yl}-3-fluoro-1,1′-biphenyl-4-carboxylic acid], 0.18 µM; to `NC(=O)Nc1cn(-c2ccc(Br)c(F)c2)nc1C(N)=O` [Example 225, 4-[(aminocarbonyl)amino]-1-(4-bromo-3-fluorophenyl)-1H-pyrazole-3-carboxamide], 0.292 µM.

Consider `NC(=O)Nc1cn(-c2ccc(-c3cccc(O)c3)c(Cl)c2)nc1C(N)=O` [Example 7, 4-[(aminocarbonyl)amino]-1-(2-chloro-3′-hydroxy-1,1′-biphenyl-4-yl)-1H-pyrazole-3-carboxamide], for which the IC50 was found to be 0.121 µM. To `NC(=O)Nc1cn(-c2ccc(Br)c(C(F)(F)F)c2)nc1C(N)=O` [Example 1, 4-[(aminocarbonyl)amino]-1-[4-bromo-3-(trifluoromethyl)phenyl]-1H-pyrazole-3-carboxamide] belongs 0.108 µM. To `NC(=O)Nc1cn(-c2ccc(-c3cc(F)ccc3O)cc2)nc1C(N)=O` [Example 99, 4-[(aminocarbonyl)amino]-1-(5′-fluoro-2′-hydroxy-1,1′-biphenyl-4-yl)-1H-pyrazole-3-carboxamide] belongs 0.555 µM; to `Cc1cc(-n2cc(NC(N)=O)c(C(N)=O)n2)ccc1I` [Example 8, 1-(4-iodo-3-methyl-phenyl)-4-ureido-1H-pyrazole-3-carboxylic acid amide], 0.089 µM; to `Cc1cc(-c2cccc(O)c2)ccc1-n1cc(NC(N)=O)c(C(N)=O)n1` [Example 5, 4-[(aminocarbonyl)amino]-1-(3′-hydroxy-3-methyl-1,1′-biphenyl-4-yl)-1H-pyrazole-3-carboxamide], 3.71 µM. To `NC(=O)Nc1cn(-c2ccc(-c3cccc(O)c3)cc2F)nc1C(N)=O` [Example 247, 4-[(aminocarbonyl)amino]-1-(3-fluoro-3′-hydroxy-1,1′-biphenyl-4-yl)-1H-pyrazole-3-carboxamide] belongs 0.249 µM. With `NC(=O)Nc1cn(-c2ccc(-c3ccc(C(=O)OCc4ccccc4F)c(F)c3)cc2)nc1C(N)=O` [Example 162, 2-fluorobenzyl 4′-{3-(aminocarbonyl)-4-[(aminocarbonyl)amino]-1H-pyrazol-1-yl}-3-fluoro-1,1′-biphenyl-4-carboxylate], the IC50 was 13.6 µM. Next, `NC(=O)COc1cccc(-c2ccc(-n3cc(NC(N)=O)c(C(N)=O)n3)cc2)c1` [Example 175, 4-[(aminocarbonyl)amino]-1-[3′-(2-amino-2-oxoethoxy)-1,1′-biphenyl-4-yl]-1H-pyrazole-3-carboxamide]: 0.181 µM; `NC(=O)Nc1cn(-c2cccc(-c3ccc(F)cc3O)c2)nc1C(N)=O` [Example 92, 4-[(aminocarbonyl)amino]-1-(4′-fluoro-2′-hydroxy-1,1′-biphenyl-3-yl)-1H-pyrazole-3-carboxamide]: 2.66 µM. Next, `COc1ccc(-n2cc(NC(N)=O)c(C(N)=O)n2)cc1Cl` [Example 209, 4-[(Aminocarbonyl)amino]-1-(3-chloro-4-methoxyphenyl)-1H-pyrazole-3-carboxamide]: 1.08 µM; `NC(=O)Nc1cn(-c2ccc(-c3ccc(C(=O)OCc4ccc(F)cc4)c(F)c3)cc2)nc1C(N)=O` [Example 164, 4-fluorobenzyl 4′-{3-(aminocarbonyl)-4-[(aminocarbonyl)amino]-1H-pyrazol-1-yl}-3-fluoro-1,1′-biphenyl-4-carboxylate]: 7.27 µM; `NC(=O)Nc1cn(-c2ccc(S(=O)(=O)c3ccccc3F)cc2)nc1C(N)=O` [Example 194, 1-(1-(4-(2-fluorophenylsulfonyl)phenyl)-3-carbamoyl-1H-pyrazol-4-yl)urea]: 0.173 µM. As for `NC(=O)Nc1cn(-c2ccc(-c3cc4ccccc4[nH]3)cc2)nc1C(N)=O` [Example 141, 4-[(aminocarbonyl)amino]-1-[4-(1H-indol-2-yl)phenyl]-1H-pyrazole-3-carboxamide], the IC50 is 4 µM. Turning to `CNC(=O)Nc1cn(-c2cccc(Br)c2)nc1C(N)=O` [Example 15, 1-(3-bromophenyl)-4-{[(methylamino)carbonyl]amino}-1H-pyrazole-3-carboxamide], the IC50 was 4.45 µM.

Consider `N#CCOc1ccc(F)cc1-c1cccc(-n2cc(NC(N)=O)c(C(N)=O)n2)c1` [Example 94, 4-[(aminocarbonyl)amino]-1-[2′-(cyanomethoxy)-5′-fluoro-1,1′-biphenyl-3-yl]-1H-pyrazole-3-carboxamide], for which the concentration for half-maximal inhibition (IC50) was found to be 0.22 µM. Take `CNC(=O)Nc1cn(-c2ccc(Br)cc2)nc1C(N)=O` [Example 16, 1-(4-bromophenyl)-4-{[(methylamino)carbonyl]amino}-1H-pyrazole-3-carboxamide]: the IC50 was 2.83 µM. `Cc1cc(I)ccc1-n1cc(NC(N)=O)c(C(N)=O)n1` [Example 4, 1-(4-iodo-2-methyl-phenyl)-4-ureido-1H-pyrazole-3-carboxylic acid amide]: the IC50 was 1.93 µM.

Values taken from US20050197338A1, “Substituted pyrazole urea compounds for the treatment of inflammation” (priority 2003, published 2005).
